Measured values reported in patent US9670223B2, “Compounds with super-aspirin effects” (SOLVOTRIN THERAPEUTICS LTD., priority 2011, dated 2017).
“Also recorded” adds a separate entry of the source. Like-named read-outs stand apart in the source and are kept apart here.

How the values were obtained:
[1] = Plasma pharmacokinetics of aspirin and metabolites after single oral gavage dose; format: in vivo, cynomolgus monkey; conditions: cynomolgus monkey, plasma, read-out: modeled AUC of Aspirin
Method: The objectives of this study are to determine the comparative clinical efficacy as determined by TxB2 suppression with single oral gavage dose administration of Aspirin, ST0702 and ST0702 Micronised to the cynomolgus monkey. Aspirin pharmacokinetics were compared using Area Under the Curve (AUC) calculations.
The objectives of this study are to determine the comparative pharmacokinetics of ST0702 at 9.6 and 4.8 mg/Kg with single oral gavage dose administration to the cynomolgus monkey and to determine dose-response effects.
Although the half life of the Isosorbide 2 salicylate 5 nicotinate metabolite is very short in-vitro, we investigated the serum taken from Cynomologus Monkeys participating in Study 2B above. The comparative pharmacokinetics of Isosorbide 2 salicylate 5 nicotinate from Monkeys receiving a single oral gavage dose of micronized ST0702 at 9.6 and 4.8 mg/Kg were evaluated. The concentrations of the breakdown products of ISANA were quantified using LCMS methods.
Animals are acclimated to the oral gavage procedure for at least 3 days prior to the commencement of dose formulation administration. Deionized water is administered by oral gavage using a disposable catheter attached to a plastic syringe at a dose volume of 5 mL/kg. Animals are treated at approximately the same time on each dosing day. Dose formulations are administered by oral gavage using a disposable catheter attached to a plastic syringe. Following each daily dose, the gavage tube is rinsed with 6 mL of Ultra Pure water into the animal's stomach. Each animal will be dosed with a clean gavage tube on each dosing occasion. The dosing volume is 10 mL/kg. Each actual volume administered will be based on the most recent practical body weight of each animal. The dose formulations will be stirred continuously during dose administration.
Samples are mixed gently and placed on crushed wet ice until centrifugation, which are carried out as soon as practical. The samples are centrifuged for approximately 10 minutes in a refrigerated centrifuge (approximately 4° C.) at 2700 rpm. The resultant plasma are separated, transferred to uniquely labeled clear polypropylene tubes, and frozen immediately over dry ice and transferred to a freezer set to maintain −80° C. The plasma samples are transferred to the bioanalytical laboratory at the Testing Facility.
Plasma samples are analyzed for concentration of Aspirin, Salicylic Acid and Nicotinic Acid using a qualified analytical procedure. Analysis are performed by LC MS/MS under Analytical Procedure. Data collection is performed using Analyst from AB Sciex. […]

59M cells = assay: Flow-mediated TCIPA using an ultrasound standing wave trap; format: cell-based, human; conditions: 500 μM, 59M cell cluster
Description: The ultrasound trap had three essential features: a transducer (Ferroperm, Kvistgard, Denmark) in a housing of radial symmetry, an aqueous phase and a reflector that provided optical access from above. The trap was driven with a function generator (Hewlett Packard 33120A, UK). Microscopic observation occurred with a fast, high-resolution XM10 camera (Soft Imaging System, SIS, GmbH) mounted on an Olympus BX51M reflection epi-fluorescence microscope. Images were captured by a standard PC equipped with the Cell-D image acquisition software (Soft Imaging System, SIS, GmbH).
The experimental procedure was as follows: 59M cells were introduced into the trap, the acoustic field (2.13 MHz, 0.85 MPa) was initiated and cell clusters were allowed to form. Clusters remained levitated in suspension for 10 min. Washed platelets (2.5×10^8/ml) were introduced into the trap at a flow rate of 3 μl/min. Perfusion of washed platelets around the cluster proceeded following initial adhesion of platelets to the periphery of the cluster.
To study the effect of aspirin and aspirin prodrugs in TCIPA, washed platelets were pre-incubated for 10 min at room temperature with the inhibitors: aspirin, nicotinate, ISAS, ISMNA, ortho and meta (all at a concentration of 500 μM), prior to their introduction into the ultrasound trap. […] The cell cluster-platelet aggregate remained under microscopic observation for further 10 min (the upper time limit established in the current study) under continuous flow conditions. Further experiments were performed with ST0702 salicylate (500 μM).

SMILES | AUC ([1]; oral, Phase 2B text, Aspirin 4.2 mg/Kg dose) | AUC ([1]; Phase 2A, Aspirin 4.2 mg/Kg oral) | inhibition of TCIPA under flow conditions (platelet-tumour cell disruption) (59M cells)
CC(=O)Oc1ccccc1C(=O)O [Aspirin] | 923 ng·h/mL | 870 ng·h/mL | –
CC(=O)Oc1ccccc1C(=O)O[C@H]1CO[C@H]2[C@@H]1OC[C@H]2OC(=O)c1cccnc1 [ST0702, isosorbide-2-aspirinate-5-nicotinate] | – | – | significantly arrested TCIPA; also recorded: effectively inhibit
